Data taken from EP0695544B1, “Hard gelatin capsules resistant to denaturation and the production thereof” (SHIONOGI & CO., LTD., priority 1994, dated 1996).
Entries after “also recorded” stand apart in the source; their conditions may differ. Read-outs that look alike come from different tables or passages of the source.

Tests used:
[1] = Solubility of gelatin capsule shells filled with PEG 4000 and free radical scavenger after storage (Example 3); type: physicochemical; details: 5 parts scavenger + 95 parts PEG 4000 packed into capsule, 60°C for a week, content removed; 2nd solution of JP12 (37 °C)
Experimental: After storage in a tightly closed glass bottle at 60°C for a week, the capsule content was removed and solubility of each capsule shell was examined in the same manner as in Example 1.

[2] = capsule shells stored without contact over 95 parts PEG 6000 + 5 parts scavenger, 60°C for a week, 2nd solution of JP12 (37 °C), observed after 5 to 6 minutes

Row | Compound | Solubility [1] | Solubility [2] | Solubility ([2]; listed as tocopherol)
1 | O=P(=O)O [metaphosphoric acid] | soluble rapidly | – | –
2 | Cc1cc2nc3c(=O)[nH]c(=O)nc-3n(C[C@H](O)[C@H](O)[C@H](O)CO)c2cc1C [riboflavin] | – | completely prevented the decrease of the solubility; also recorded: soluble rapidly | –
3 | Cc1c(C)c2c(c(C)c1O)CC[C@@](C)(CCC[C@H](C)CCC[C@H](C)CCCC(C)C)O2 [d-α -tocopherol] | soluble rapidly | soluble rapidly | completely prevented the decrease of the solubility

More lines, main results first:

Row | Solubility [1] | Compound | Solubility [2] | Solubility ([2]; listed as tocopherol)
4 | soluble rapidly | polyphosphoric acid | – | –
5 | soluble rapidly | N[C@@H](CCC(=O)N[C@@H](CS)C(=O)NCC(=O)O)C(=O)O [glutathione] | – | –
